According to patent publication US6525001B1, “Substituted pyrimidine and pyridine herbicides” (Mid-American Commercialization Corporation, priority 1997, dated 2003):

Assays:
Experiment in all cases: Test B pre-/postemergence
Format in all cases: in vivo
Design in all cases: key: 0 is no effect; 10 is complete control
[1] = system: bedstraw (Galium aparine)
Method in brief: (§1)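 Response scores run from 0, meaning no effect, to 10, meaning complete control, assigned by eye relative to controls twelve to sixteen days after spraying. Treatment was both preemergence on planted seed and postemergence on plants at the 1- to 4-leaf stage.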

[2] = system: cocklebur (Xanthium strumarium)
Method in brief: as §1

corn (Zea mays) = system: corn (Zea mays)
Method in brief: as §1

[3] = system: crabgrass (Digitaria sanguinalis)
Method in brief: as §1

[4] = system: giant foxtail (Setaria faberii)
Method in brief: as §1

[5] = system: momingglory (Ipomoea hederacea)
Method in brief: as §1

[6] = system: pigweed (Amaranthus retroflexus)
Method in brief: as §1

[7] = system: purple nutsedge (Cyperus rotundus)
Method in brief: as §1

rape (Brassica napus) = system: rape (Brassica napus)
Method in brief: as §1

soybean (Glycine max) = system: soybean (Glycine max)
Method in brief: as §1

[8] = system: sugar beet (Beta vulgaris)
Method in brief: as §1

[9] = system: velvetleaf (Abutilon theophrasti)
Method in brief: as §1

[10] = system: wheat (Triticum aestivum)
Method in brief: as §1

wild oat (Avena fatua) = system: wild oat (Avena fatua)
Method in brief: as §1

[11] = Preemergence, Rate 62 g/ha, scale of 0 to 10

Cc1cnc(-c2ccc(C(F)(F)F)cc2)nc1Cn1ccc(C#N)n1 [Compound 53]
Plant response rating, Bedstraw [1, 11]: 1
Bedstraw plant response rating ([1]; Rate 62 g/ha, Postemergence): 5
Bedstraw plant response rating ([1]; Rate 125 g/ha, Postemergence): 8
Plant response rating, Bedstraw ([1]; Rate 125 g/ha, Preemergence): 3
Plant response rating, Bedstraw ([1]; Rate 250 g/ha, Postemergence): 10
Plant response rating, Bedstraw ([1]; Rate 250 g/ha, Preemergence): 7
Plant response rating, Bedstraw ([1]; Rate 500 g/ha, Postemergence): 10
Plant response rating, Bedstraw ([1]; Rate 500 g/ha, Preemergence): 8
Plant response rating, Cocklebur [2, 11]: 0
Cocklebur plant response rating ([2]; Rate 62 g/ha, Postemergence): 5
Cocklebur plant response rating ([2]; Rate 125 g/ha, Postemergence): 5
Plant response rating, Cocklebur ([2]; Rate 125 g/ha, Preemergence): 0
Plant response rating, Cocklebur ([2]; Rate 250 g/ha, Postemergence): 6
Plant response rating, Cocklebur ([2]; Rate 250 g/ha, Preemergence): 0
Plant response rating, Cocklebur ([2]; Rate 500 g/ha, Postemergence): 6
Plant response rating, Cocklebur ([2]; Rate 500 g/ha, Preemergence): 1
Plant response rating, Corn (corn (Zea mays); [11]): 0
Corn plant response rating (corn (Zea mays); Rate 62 g/ha, Postemergence): 1
Corn plant response rating (corn (Zea mays); Rate 125 g/ha, Postemergence): 1
Plant response rating, Corn (corn (Zea mays); Rate 125 g/ha, Preemergence): 0
Plant response rating, Corn (corn (Zea mays); Rate 250 g/ha, Postemergence): 1
Plant response rating, Corn (corn (Zea mays); Rate 250 g/ha, Preemergence): 0
Plant response rating, Corn (corn (Zea mays); Rate 500 g/ha, Postemergence): 1
Plant response rating, Corn (corn (Zea mays); Rate 500 g/ha, Preemergence): 0
Crabgrass plant response rating ([3]; Rate 62 g/ha, Postemergence): 1
Crabgrass plant response rating ([3]; Rate 125 g/ha, Postemergence): 2
Plant response rating, Crabgrass ([3]; Rate 125 g/ha, Preemergence): 4
Plant response rating, Crabgrass ([3]; Rate 250 g/ha, Postemergence): 4
Plant response rating, Crabgrass ([3]; Rate 250 g/ha, Preemergence): 6
Plant response rating, Crabgrass ([3]; Rate 500 g/ha, Postemergence): 4
Plant response rating, Crabgrass ([3]; Rate 500 g/ha, Preemergence): 8
Plant response rating, Giant foxtail [4, 11]: 1
Giant foxtail plant response rating ([4]; Rate 62 g/ha, Postemergence): 1
Giant foxtail plant response rating ([4]; Rate 125 g/ha, Postemergence): 1
Plant response rating, Giant foxtail ([4]; Rate 125 g/ha, Preemergence): 5
Plant response rating, Giant foxtail ([4]; Rate 250 g/ha, Postemergence): 1
Plant response rating, Giant foxtail ([4]; Rate 250 g/ha, Preemergence): 6
Plant response rating, Giant foxtail ([4]; Rate 500 g/ha, Postemergence): 2
Plant response rating, Giant foxtail ([4]; Rate 500 g/ha, Preemergence): 6
Plant response rating, Morningglory [5, 11]: 1
Morningglory plant response rating ([5]; Rate 125 g/ha, Postemergence): 3
Plant response rating, Morningglory ([5]; Rate 125 g/ha, Preemergence): 2
Plant response rating, Morningglory ([5]; Rate 250 g/ha, Preemergence): 2
Plant response rating, Morningglory ([5]; Rate 500 g/ha, Postemergence): 3
Plant response rating, Morningglory ([5]; Rate 500 g/ha, Preemergence): 5
Plant response rating, Redroot pigweed [6, 11]: 0
Redroot pigweed plant response rating ([6]; Rate 62 g/ha, Postemergence): 2
Redroot pigweed plant response rating ([6]; Rate 125 g/ha, Postemergence): 6
Plant response rating, Redroot pigweed ([6]; Rate 125 g/ha, Preemergence): 2
Plant response rating, Redroot pigweed ([6]; Rate 250 g/ha, Postemergence): 7
Plant response rating, Redroot pigweed ([6]; Rate 250 g/ha, Preemergence): 7
Plant response rating, Redroot pigweed ([6]; Rate 500 g/ha, Postemergence): 7
Plant response rating, Redroot pigweed ([6]; Rate 500 g/ha, Preemergence): 8
Plant response rating, Nutsedge [7, 11]: 0
Nutsedge plant response rating ([7]; Rate 62 g/ha, Postemergence): 0
Nutsedge plant response rating ([7]; Rate 125 g/ha, Postemergence): 0
Plant response rating, Nutsedge ([7]; Rate 125 g/ha, Preemergence): 0
Plant response rating, Nutsedge ([7]; Rate 250 g/ha, Postemergence): 0
Plant response rating, Nutsedge ([7]; Rate 250 g/ha, Preemergence): 0
Plant response rating, Nutsedge ([7]; Rate 500 g/ha, Preemergence): 0
Plant response rating, Rape (rape (Brassica napus); [11]): 2
Rape plant response rating (rape (Brassica napus); Rate 62 g/ha, Postemergence): 8
Rape plant response rating (rape (Brassica napus); Rate 125 g/ha, Postemergence): 8
Plant response rating, Rape (rape (Brassica napus); Rate 125 g/ha, Preemergence): 5
Plant response rating, Rape (rape (Brassica napus); Rate 250 g/ha, Postemergence): 8
Plant response rating, Rape (rape (Brassica napus); Rate 250 g/ha, Preemergence): 7
Plant response rating, Rape (rape (Brassica napus); Rate 500 g/ha, Postemergence): 9
Plant response rating, Rape (rape (Brassica napus); Rate 500 g/ha, Preemergence): 7
Plant response rating, Soybean (soybean (Glycine max); [11]): 0
Soybean plant response rating (soybean (Glycine max); Rate 62 g/ha, Postemergence): 5
Soybean plant response rating (soybean (Glycine max); Rate 125 g/ha, Postemergence): 5
Plant response rating, Soybean (soybean (Glycine max); Rate 125 g/ha, Preemergence): 0
Plant response rating, Soybean (soybean (Glycine max); Rate 250 g/ha, Postemergence): 7
Plant response rating, Soybean (soybean (Glycine max); Rate 250 g/ha, Preemergence): 0
Plant response rating, Soybean (soybean (Glycine max); Rate 500 g/ha, Postemergence): 7
Plant response rating, Soybean (soybean (Glycine max); Rate 500 g/ha, Preemergence): 0
Plant response rating, Sugarbeets [8, 11]: 4
Sugarbeets plant response rating ([8]; Rate 62 g/ha, Postemergence): 9
Sugarbeets plant response rating ([8]; Rate 125 g/ha, Postemergence): 10
Plant response rating, Sugarbeets ([8]; Rate 125 g/ha, Preemergence): 8
Plant response rating, Sugarbeets ([8]; Rate 250 g/ha, Postemergence): 10
Plant response rating, Sugarbeets ([8]; Rate 250 g/ha, Preemergence): 9
Plant response rating, Sugarbeets ([8]; Rate 500 g/ha, Postemergence): 10
Plant response rating, Sugarbeets ([8]; Rate 500 g/ha, Preemergence): 9
Plant response rating, Velvetleaf [9, 11]: 0
Velvetleaf plant response rating ([9]; Rate 62 g/ha, Postemergence): 6
Velvetleaf plant response rating ([9]; Rate 125 g/ha, Postemergence): 6
Plant response rating, Velvetleaf ([9]; Rate 125 g/ha, Preemergence): 2
Plant response rating, Velvetleaf ([9]; Rate 250 g/ha, Postemergence): 7
Plant response rating, Velvetleaf ([9]; Rate 250 g/ha, Preemergence): 4
Plant response rating, Velvetleaf ([9]; Rate 500 g/ha, Postemergence): 7
Plant response rating, Velvetleaf ([9]; Rate 500 g/ha, Preemergence): 8
Plant response rating, Wheat [10, 11]: 0
Wheat plant response rating ([10]; Rate 62 g/ha, Postemergence): 1
Wheat plant response rating ([10]; Rate 125 g/ha, Postemergence): 1
Plant response rating, Wheat ([10]; Rate 125 g/ha, Preemergence): 0
Plant response rating, Wheat ([10]; Rate 250 g/ha, Postemergence): 1
Plant response rating, Wheat ([10]; Rate 250 g/ha, Preemergence): 0
Plant response rating, Wheat ([10]; Rate 500 g/ha, Postemergence): 2
Plant response rating, Wheat ([10]; Rate 500 g/ha, Preemergence): 1
Plant response rating, Wild oats (wild oat (Avena fatua); [11]): 0
Wild oats plant response rating (wild oat (Avena fatua); Rate 62 g/ha, Postemergence): 1
Wild oats plant response rating (wild oat (Avena fatua); Rate 125 g/ha, Postemergence): 1
Plant response rating, Wild oats (wild oat (Avena fatua); Rate 125 g/ha, Preemergence): 0
Plant response rating, Wild oats (wild oat (Avena fatua); Rate 250 g/ha, Postemergence): 1
Plant response rating, Wild oats (wild oat (Avena fatua); Rate 250 g/ha, Preemergence): 1
Plant response rating, Wild oats (wild oat (Avena fatua); Rate 500 g/ha, Postemergence): 2
Plant response rating, Wild oats (wild oat (Avena fatua); Rate 500 g/ha, Preemergence): 1
